Test: ring-closing metathesis (C=C bond) of side-chain olefins, second-generation Grubbs catalyst 20 mol %, under argon, 2 h
Settings: CH2Cl2, 20.0 mM, 25.0 °C

## COC(=O)C1(NC(=O)[C@H](CC(C)C)NC(=O)[C@H](CC(C)C)NC(=O)[C@@H]2COCCCC=CC[C@]3(CCCN3C(=O)OCc3ccccc3)C(=O)N[C@@H](CC(C)C)C(=O)N[C@@H](CC(C)C)C(=O)N2)CCCC1
From C=CCCCOC[C@H](NC(=O)[C@H](CC(C)C)NC(=O)[C@H](CC(C)C)NC(=O)[C@]1(CC=C)CCCN1C(=O)OCc1ccccc1)C(=O)N[C@@H](CC(C)C)C(=O)N[C@@H](CC(C)C)C(=O)NC1(C(=O)OC)CCCC1, 18-membered ring, 2.0 h
  ring closure, isolated yield: 96%

## COC(=O)[C@@H]1COCC=CCO[C@@H]2C[C@@H](C(=O)N1)N(C(=O)OC(C)(C)C)C2
From C=CCOC[C@H](NC(=O)[C@@H]1C[C@@H](OCC=C)CN1C(=O)OC(C)(C)C)C(=O)OC, 13-membered ring
  ring closure, isolated yield: 0%

## COC(=O)[C@@H]1COCC=CCO[C@H]2C[C@@H](C(=O)N1)N(C(=O)OC(C)(C)C)C2 [Boc-cis-Hyp(OAllyl)-Ser(OAllyl)-OMe (cis-4-hydroxy-L-Pro)]
From C=CCOC[C@H](NC(=O)[C@@H]1C[C@H](OCC=C)CN1C(=O)OC(C)(C)C)C(=O)OC, 13-membered ring, 2.0 h
  ring closure, isolated yield: 55%

## COC(=O)C1(NC(=O)[C@H](CC(C)C)NC(=O)[C@H](CC(C)C)NC(=O)C2(NC(=O)[C@H](CC(C)C)NC(=O)[C@H](CC(C)C)NC(=O)[C@@H]3COCCCC=CCO[C@H]4C[C@@H](C(=O)N3)N(C(=O)OC(C)(C)C)C4)CCCC2)CCCC1
From C=CCCCOC[C@H](NC(=O)[C@@H]1C[C@H](OCC=C)CN1C(=O)OC(C)(C)C)C(=O)N[C@@H](CC(C)C)C(=O)N[C@@H](CC(C)C)C(=O)NC1(C(=O)N[C@@H](CC(C)C)C(=O)N[C@@H](CC(C)C)C(=O)NC2(C(=O)OC)CCCC2)CCCC1, 15-membered ring, 2.0 h
  ring closure, isolated yield: 93%

## COC(=O)C1(NC(=O)[C@H](CC(C)C)NC(=O)[C@H](CC(C)C)NC(=O)C2(NC(=O)[C@H](CC(C)C)NC(=O)[C@H](CC(C)C)NC(=O)[C@@H]3COCC=CCO[C@H]4C[C@@H](C(=O)N3)N(C(=O)OC(C)(C)C)C4)CCCC2)CCCC1
From C=CCOC[C@H](NC(=O)[C@@H]1C[C@H](OCC=C)CN1C(=O)OC(C)(C)C)C(=O)N[C@@H](CC(C)C)C(=O)N[C@@H](CC(C)C)C(=O)NC1(C(=O)N[C@@H](CC(C)C)C(=O)N[C@@H](CC(C)C)C(=O)NC2(C(=O)OC)CCCC2)CCCC1, 13-membered ring
  ring closure, isolated yield: 0%

— paper PMC7594088
